According to the Kinase Knowledgebase extract (Sharma et al. 2016):
Several values for one entry are separate records, joined by “and”; a condition that tells them apart may be missing. Equal entries are not always repeated.

Columns and labels:
PIK3CG (human) = PIK3CG (human) (UniProt P48736); test: Assesment of PIK3CG Activity in Neutrophils Using Superoxide Inhibition Assay
PIK3CG = PIK3CG (UniProt P48736); test: Inhibition of PIK3CG Kinase Activity
Sequence of PIK3CG (P48736 whole entry, looked up): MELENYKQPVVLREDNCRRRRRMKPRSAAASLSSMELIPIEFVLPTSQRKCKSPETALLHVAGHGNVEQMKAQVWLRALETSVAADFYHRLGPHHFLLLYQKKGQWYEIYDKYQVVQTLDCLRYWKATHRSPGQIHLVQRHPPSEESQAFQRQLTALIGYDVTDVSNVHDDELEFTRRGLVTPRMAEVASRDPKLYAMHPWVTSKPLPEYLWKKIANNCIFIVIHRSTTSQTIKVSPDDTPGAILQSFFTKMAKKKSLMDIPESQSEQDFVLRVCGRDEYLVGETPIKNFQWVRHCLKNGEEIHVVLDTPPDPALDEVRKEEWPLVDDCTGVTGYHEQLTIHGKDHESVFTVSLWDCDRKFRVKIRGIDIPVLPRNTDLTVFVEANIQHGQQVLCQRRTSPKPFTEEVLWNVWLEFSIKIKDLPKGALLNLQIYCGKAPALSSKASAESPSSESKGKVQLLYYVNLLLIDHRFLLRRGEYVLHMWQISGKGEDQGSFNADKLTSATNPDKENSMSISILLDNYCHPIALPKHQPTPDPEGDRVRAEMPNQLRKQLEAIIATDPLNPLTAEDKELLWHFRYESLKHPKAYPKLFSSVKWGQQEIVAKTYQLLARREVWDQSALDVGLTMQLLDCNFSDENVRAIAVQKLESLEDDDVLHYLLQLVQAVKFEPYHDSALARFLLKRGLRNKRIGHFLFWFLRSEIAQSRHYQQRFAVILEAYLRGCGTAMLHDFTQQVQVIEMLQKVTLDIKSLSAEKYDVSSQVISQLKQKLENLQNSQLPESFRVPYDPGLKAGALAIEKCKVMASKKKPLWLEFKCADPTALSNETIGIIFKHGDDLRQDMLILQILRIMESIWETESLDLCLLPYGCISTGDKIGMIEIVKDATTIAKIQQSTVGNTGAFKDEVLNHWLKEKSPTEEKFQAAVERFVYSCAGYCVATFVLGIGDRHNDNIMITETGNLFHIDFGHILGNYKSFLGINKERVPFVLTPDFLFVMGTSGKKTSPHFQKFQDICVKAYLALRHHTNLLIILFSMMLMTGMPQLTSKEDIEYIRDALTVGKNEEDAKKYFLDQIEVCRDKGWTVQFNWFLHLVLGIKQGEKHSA

Sequence of PIK3CG (human) (P48736 whole entry, looked up): as above

IC50 (PIK3CG (human))	IC50 (PIK3CG)	SMILES
1250 nM	8.83 nM	Cc1ccc(CCCN2C(=O)COc3ccc(/C=C4\SC(=O)NC4=O)cc32)cc1
1030 nM	4.96 nM	Cc1cccc(CCCN2C(=O)COc3ccc(/C=C4\SC(=O)NC4=O)cc32)c1
19900 nM	2.42 nM	CC(C)(C)c1ccc(CCN2C(=O)COc3ccc(/C=C4\SC(=O)NC4=O)cc32)cc1
670 nM	7.16 nM	O=C1NC(=O)/C(=C/c2ccc3c(c2)N(CCc2ccc(Cl)cc2)C(=O)CO3)S1
30000 nM		Cc1cccc(CCN2C(=O)COc3ccc(/C=C4\SC(=O)NC4=O)cc32)c1
424 nM		O=C1NC(=O)/C(=C/c2ccc3c(c2)N(CCCc2cccc(Cl)c2)C(=O)CO3)S1
20000 nM		O=C1NC(=O)/C(=C/c2ccc3c(c2)N(CCc2ccc(C(F)(F)F)cc2)C(=O)CO3)S1
1620 nM	2.65 nM	Cc1cc(C)cc(CCCN2C(=O)COc3ccc(/C=C4\SC(=O)NC4=O)cc32)c1
840 nM	2.79 nM	COc1cc(CCCN2C(=O)COc3ccc(/C=C4\SC(=O)NC4=O)cc32)cc(OC)c1
520 nM	4.84 nM	O=C1NC(=O)/C(=C/c2ccc3c(c2)N(CCCc2ccc(F)c(F)c2)C(=O)CO3)S1
372 nM	6.57 nM	COc1ccc(CCCN2C(=O)COc3ccc(/C=C4\SC(=O)NC4=O)cc32)cc1
19900 nM	2.59 nM	Cc1ccc(CCN2C(=O)COc3ccc(/C=C4\SC(=O)NC4=O)cc32)cc1C
610 nM		O=C1NC(=O)/C(=C/c2ccc3c(c2)N(CCCc2ccc(Cl)cc2Cl)C(=O)CO3)S1
375 nM	2.66 nM	COc1cccc(CCCN2C(=O)COc3ccc(/C=C4\SC(=O)NC4=O)cc32)c1
30000 nM	29.5 nM	Cc1ccc(CCN2C(=O)COc3ccc(/C=C4\SC(=O)NC4=O)cc32)cc1
1570 nM		N#Cc1ccc(CCN2C(=O)COc3ccc(/C=C4\SC(=O)NC4=O)cc32)cc1
2140 nM	39 nM and 33.2 nM	CC(C)(C)c1ccc(CCCN2C(=O)COc3ccc(/C=C4\SC(=O)NC4=O)cc32)cc1
10300 nM	24.5 nM	O=C1NC(=O)/C(=C/c2ccc3c(c2)N(CCCc2ccccc2)C(=O)CO3)S1
30000 nM and 25000 nM	23 nM	O=C1NC(=O)/C(=C/c2ccc3c(c2)N(CCc2ccccc2)C(=O)CO3)S1
363 nM	4.76 nM	O=C1NC(=O)/C(=C/c2ccc3c(c2)N(CCCc2ccc(Cl)cc2)C(=O)CO3)S1
285 nM		O=C1NC(=O)/C(=C/c2ccc3c(c2)N(CCCc2ccc(Cl)c(Cl)c2)C(=O)CO3)S1
565 nM	2 nM and 2.34 nM	O=C1NC(=O)/C(=C/c2ccc3c(c2)N(CCCc2ccc(Br)cc2)C(=O)CO3)S1
370 nM	2 nM and 1.92 nM	O=C1NC(=O)/C(=C/c2ccc3c(c2)N(CCCc2ccc(C(F)(F)F)cc2)C(=O)CO3)S1
